Laboratory results taken from ChEMBL document CHEMBL1201862, “PubChem BioAssay data set” (2004).
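Protocol summary: plate cells (96-well), add compound at 5 concentrations, incubate 48 h, interpolate endpoints linearly. Abbreviation: GI50, concentration required for 50% inhibition of growth.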 The source made the active and inactive calls. No stated cut-off is given here; in the data, active = GI50 up to about 1.1 µM and inactive = higher.

Assays:
Experiment in all cases: inhibition of tumour cell growth, NCI panel, 48 h
[1] = test system: HCC 2998
[2] = test system: TK-10
[3] = test system: CCRF-CEM
[4] = test system: DU-145
[5] = test system: RXF 393
[6] = test system: OVCAR-3
[7] = test system: OVCAR-5
[8] = test system: MDA-MB-435
[9] = test system: MDA-MB-231
[10] = test system: HT-29
[11] = test system: NCI/ADR-RES
[12] = test system: SK-OV-3
[13] = test system: SK-MEL-2
[14] = test system: LOX IMVI
[15] = test system: HL-60
[16] = test system: HCT-116
[17] = test system: EKVX
[18] = test system: SN12C
[19] = test system: 786-0
[20] = test system: SW-620
[21] = test system: PC-3
[22] = test system: SF-539
[23] = test system: NCI-H226
[24] = test system: RPMI-8226
[25] = test system: KM12
[26] = test system: NCI-H522
[27] = test system: MOLT-4
[28] = test system: HOP-92
[29] = test system: CAKI-1
[30] = test system: SF-295
[31] = test system: UACC-257
[32] = test system: OVCAR-4
[33] = test system: SK-MEL-28
[34] = test system: NCI-H460
[35] = test system: UO-31
[36] = test system: M14
[37] = test system: T47D
[38] = test system: SNB-75
[39] = test system: MDA-N
[40] = test system: MCF7
[41] = test system: K562
[42] = test system: HCT-15
[43] = test system: SR
[44] = test system: A498
[45] = test system: ACHN
[46] = test system: OVCAR-8
[47] = test system: HOP-62
[48] = test system: NCI-H23
[49] = test system: Malme-3M
[50] = test system: U-251
[51] = test system: BT-549
[52] = test system: UACC-62
[53] = test system: SF-268
[54] = test system: SNB-19
[55] = test system: SK-MEL-5
[56] = test system: COLO 205
[57] = test system: Hs-578T
[58] = test system: IGROV-1
[59] = test system: A549

## CCOC(=O)C(NC(=O)CC)(Nc1ccc(S(=O)(=O)Nc2ccc(OC)nn2)cc1)C(F)(F)F (stereo not drawn)
[1]
  GI50: 27.4 µM (inactive)
[2]
  GI50: > 100 µM (inactive)
[3]
  GI50: > 100 µM (inactive)
[4]
  GI50: > 100 µM (inactive)
[5]
  GI50: > 100 µM (inactive)
[6]
  GI50: > 100 µM (inactive)
[7]
  GI50: > 100 µM (inactive)
[8]
  GI50: > 100 µM (inactive)
[9]
  GI50: > 100 µM (inactive)
[10]
  GI50: > 100 µM (inactive)
[11]
  GI50: > 100 µM (inactive)
[12]
  GI50: > 100 µM (inactive)
[13]
  GI50: > 100 µM (inactive)
[14]
  GI50: > 100 µM (inactive)
[15]
  GI50: > 100 µM (inactive)
[16]
  GI50: > 100 µM (inactive)
[17]
  GI50: > 100 µM (inactive)
[18]
  GI50: > 100 µM (inactive)
[19]
  GI50: > 100 µM (inactive)
[20]
  GI50: > 100 µM (inactive)
[21]
  GI50: > 100 µM (inactive)
[22]
  GI50: > 100 µM (inactive)
[23]
  GI50: > 100 µM (inactive)
[24]
  GI50: > 100 µM (inactive)
[25]
  GI50: > 100 µM (inactive)
[26]
  GI50: > 100 µM (inactive)
[27]
  GI50: > 100 µM (inactive)
[28]
  GI50: > 100 µM (inactive)
[29]
  GI50: > 100 µM (inactive)
[30]
  GI50: > 100 µM (inactive)
[31]
  GI50: > 100 µM (inactive)
[32]
  GI50: > 100 µM (inactive)
[33]
  GI50: > 100 µM (inactive)
[34]
  GI50: > 100 µM (inactive)
[35]
  GI50: > 100 µM (inactive)
[36]
  GI50: > 100 µM (inactive)
[37]
  GI50: > 100 µM (inactive)
[38]
  GI50: > 100 µM (inactive)
[39]
  GI50: > 100 µM (inactive)
[40]
  GI50: > 100 µM (inactive)
[41]
  GI50: > 100 µM (inactive)
[42]
  GI50: > 100 µM
[43]
  GI50: > 100 µM (inactive)
[44]
  GI50: > 100 µM (inactive)
[45]
  GI50: > 100 µM (inactive)
[46]
  GI50: > 100 µM (inactive)
[47]
  GI50: > 100 µM (inactive)
[48]
  GI50: > 100 µM (inactive)
[49]
  GI50: > 100 µM (inactive)
[50]
  GI50: > 100 µM (inactive)
[51]
  GI50: > 100 µM (inactive)
[52]
  GI50: > 100 µM (inactive)
[53]
  GI50: > 100 µM (inactive)
[54]
  GI50: > 100 µM (inactive)
[55]
  GI50: > 100 µM (inactive)
[56]
  GI50: > 100 µM (inactive)
[57]
  GI50: > 100 µM (inactive)
[58]
  GI50: > 100 µM (inactive)
[59]
  GI50: > 100 µM (inactive)

## CN(C)c1ccc2cc3ccc(N(C)C)cc3nc2c1 [ACRIDINE ORANGE]
[1]
  GI50: 0.56 µM (active)
[2]
  GI50: 2.86 µM (inactive)
[3]
  GI50: 0.678 µM (active)
[4]
  GI50: 1.32 µM (inactive)
[5]
  GI50: 3.74 µM (inactive)
[6]
  GI50: 2.95 µM (inactive)
[7]
  GI50: 2.75 µM (inactive)
[8]
  GI50: 1.79 µM (inactive)
[9]
  GI50: 1.19 µM (inactive)
[10]
  GI50: 0.403 µM (active)
[11]
  GI50: 1.43 µM (inactive)
[12]
  GI50: 5.85 µM (inactive)
[13]
  GI50: 6.18 µM (inactive)
[14]
  GI50: 1.31 µM (inactive)
[15]
  GI50: 0.331 µM (active)
[16]
  GI50: 0.316 µM (active)
[17]
  GI50: 1.87 µM (inactive)
[18]
  GI50: 0.962 µM (active)
[19]
  GI50: 0.638 µM (active)
[20]
  GI50: 0.49 µM (active)
[21]
  GI50: 2.04 µM (inactive)
[22]
  GI50: 1.88 µM (inactive)
[23]
  GI50: 5.09 µM (inactive)
[24]
  GI50: 0.527 µM (active)
[25]
  GI50: 0.488 µM (active)
[26]
  GI50: 1.58 µM (inactive)
[27]
  GI50: 0.134 µM (active)
[28]
  GI50: 4.32 µM (inactive)
[29]
  GI50: 1.79 µM (inactive)
[30]
  GI50: 2.08 µM (inactive)
[31]
  GI50: 3.98 µM (inactive)
[32]
  GI50: 0.853 µM (active)
[33]
  GI50: 3.37 µM (inactive)
[34]
  GI50: 0.393 µM (active)
[35]
  GI50: 0.871 µM (active)
[36]
  GI50: 3.05 µM (inactive)
[37]
  GI50: 12.1 µM (inactive)
[38]
  GI50: 2.1 µM (inactive)
[39]
  GI50: 1.19 µM (inactive)
[40]
  GI50: 0.714 µM (active)
[41]
  GI50: 0.397 µM (active)
[42]
  GI50: 0.467 µM
[43]
  GI50: 0.0849 µM (active)
[44]
  GI50: 4.08 µM (inactive)
[45]
  GI50: 0.611 µM (active)
[46]
  GI50: 1.56 µM (inactive)
[47]
  GI50: 2.02 µM (inactive)
[48]
  GI50: 1.51 µM (inactive)
[49]
  GI50: 3.86 µM (inactive)
[50]
  GI50: 1.24 µM (inactive)
[51]
  GI50: 6.78 µM (inactive)
[52]
  GI50: 4.05 µM (inactive)
[53]
  GI50: 1.52 µM (inactive)
[54]
  GI50: 0.984 µM (active)
[55]
  GI50: 1.99 µM (inactive)
[56]
  GI50: 0.975 µM (active)
[57]
  GI50: 2.5 µM (inactive)
[58]
  GI50: 2.2 µM (inactive)
[59]
  GI50: 0.927 µM (active)
